Data set [1] is described as follows: Stability of ethyl formate and methyl isothiocyanate formulation stored at 25° C. Type of data set: physicochemical. Particulars: for stability when formulated and stored: 25° C., 2 months; for percent of the original fumigant present (M/Mo): formulation stored at 25° C. The procedure:
The stability of ethyl formate and methyl isothiocyanate as a fumigant formulation stored at 25° C. was assessed for a period of 1 day, 1 month and 2 months. […] This is also graphically represented in FIG. 1.

Data set [2] is described as follows: 4 tonne outloading trial: fumigant concentration next day. Particulars: 160 g/t, tray of wheat, overnight, 20° C. The procedure: During outloading, wheat was treated/fumigated with a 95:5 (w:w) ratio of ethyl formate+methyl isothiocyanate at a rate of 160 g/t. The treated wheat was then transferred by auger into a 4 tonne truck tray and then covered and held overnight (see FIG. 10).

Data set [3] relates to mixed aged cultures (egg, larvae and pupae) of S. oryzae. Briefly: Emerging adult study on mixed aged cultures of S. oryzae. Type of data set: in vivo. As to conditions: Sitophilus oryzae, 25° C., 6 hours fumigation, read-out: emerging adult population, % of control. As for the experimental part:
Table 3 compares the toxicity of ethyl formate alone and ethyl formate+methyl isothiocyanate to mixed aged cultures (egg, larvae and pupae) of S. oryzae at 25° C. after 6 hours fumigation at two concentrations.

In the next data set the test system is pupae of S. oryzae. Briefly: Emerging adult study on pupae of S. oryzae. Type of data set: in vivo, Sitophilus oryzae. As to conditions: 25° C. As for the experimental part: Table 4 compares the toxicity of ethyl formate alone and ethyl formate+methyl isothiocyanate to pupae of S. oryzae at 25° C. after 6 hours fumigation at two concentrations.
Table 5 compares the toxicity of ethyl formate alone and ethyl formate+methyl isothiocyanate to pupae of S. oryzae at 25° C. after 24 hours fumigation at two concentrations.

The test system of data set [4] is adults of Sitophilus oryzae. The experiment in a line: Toxicity study on adults of Sitophilus oryzae (fumigation, mortality). Type of data set: in vivo. As to conditions: 25° C., 24 hours fumigation. The procedure:
The insect species studied were laboratory strains of the rice weevil Sitophilus oryzae present as the egg, larvae, pupae or adult and mixed aged cultures thereof in bulk stores of wheat.
Toxicity studies of ethyl formate alone compared with ethyl formate and […] were conducted on adults of the rice weevil Sitophilus oryzae at 25° C. and 24 hours fumigation.

Consider two compounds from patent US8278352B2, “Pesticide compositions and methods” (Commonwealth Scientific & Industrial Research Organisation, priority 2004, dated 2012).

Entries after “also recorded” stand apart in the source; their conditions may differ. Counter-ions that a name gives are not always drawn.

By mortality is commonly meant the percentage killed. A lower mortality goes with a weak lethal effect.

Regarding `CN=C=S` [MITC, methyl isothiocyanate], the “stability when formulated and stored” value in data set [1] is reported as “stable”. In addition, the “percent of the original fumigant present (M/Mo)” value in data set [1] (1 Day) was determined as 100%; in data set [1] (1 Month) it was 98%; in data set [1] (2 Months), 101.5%. For the same compound, the “concentration of fumigant component on the next day” value in data set [2] was “below TLV”.
As for `CCOC=O` [EtF, ethyl formate], the “stability when formulated and stored” value in data set [1] is on record as “stable”. Besides, the entries for the “percent of the original fumigant present (M/Mo)” value in data set [1] (1 Day), in data set [1] (1 Month) and in data set [1] (2 Months) were 100%, 102% and 98.5%, respectively. Further, the activity at 67.4 µg/mL in data set [3] (67.4 mg/L) worked out at 27%. Also, in data set [3] (101.1 mg/L), the activity at 101.1 µg/mL was 5%. For the same compound, the emerging adult % with pupae of S. oryzae (34.8 mg/L, 24 hours fumigation) is on record as 19%; in the data set with pupae of S. oryzae (67.4 mg/L, 6 hours fumigation), 24%; in the data set on pupae of S. oryzae (67.4 mg/L, 24 hours fumigation) it was 9%; with pupae of S. oryzae (101.1 mg/L, 6 hours fumigation) it was 12%. Also, the “concentration of fumigant component on the next day” value in data set [2] is given as “below TLV”. For the same compound, the mortality entry in data set [4] (5.9 mg/L) is “inactive; also recorded: unaffected”. The mortality at 5.9 µg/mL in data set [4] (Sitophilus oryzae, 5.9 mg/L) worked out at 0%. This compound showed a mortality at 11.8 µg/mL in data set [4] (Sitophilus oryzae, 11.8 mg/L) of 48%.
